Source: patent US11401278B2, “Macrocyclic indole derivatives” (The Broad Institute, Inc., priority 2017, dated 2022)
Counter-ions that a name gives are not always drawn. Like-named read-outs stand apart in the source and are kept apart here.

Key:
[1] = target: BCL-XL (Homo sapiens (Human), UniProt Q07817); test: Protein-protein interaction assay BCL-XL/Bad BH3 peptide (BCL-XL assay, TR-FRET); type: binding; settings: His-BCL-XL / Bad BH3 peptide, median
Method: Assay 2 Protein-Protein Interaction Assay: BCL-XL/Bad BH3 Peptide (BCL-XL Assay)
The dose-dependent inhibition by the compounds described in this invention of the interaction between BCL-XL and the BH3 domain of Bad (both human) was determined using a steady state binding competition assay with time-resolved fluorescence energy transfer (TR-FRET) readout. For that purpose BCL-XL (amino acids 1-212, C-terminal fused to a hexahistidine (6×His) tag (SEQ ID 3) and a synthetic Bad BH3-derived peptide of sequence Biotin-PEG2-PEG2-NLWAAQRYGRELRR-Nle-SDEFVDSFKK-amide (SEQ ID 4) served as protein receptor and tracer ligand respectively. The recombinant BCL-XL protein (expressed in E. coli) was purchased from BPS Bioscience (San Diego, Calif., USA). The Bad BH3-derived peptide can be obtained from e.g. Biosyntan (Berlin, Germany).
In the assay 11 different concentrations of each compound (0.1 nM, 0.33 nM, 1.1 nM, 3.8 nM, 13 nM, 44 nM, 0.15 μM, 0.51 μM, 1.7 μM, 5.9 μM and 20 μM) were typically measured as duplicates in the same microtiter plate. For that, 100-fold concentrated DMSO solutions were prepared by serial dilutions (1:3.4) of a 2 mM stock solution in a clear, 384-well microtiter plate (Greiner Bio-One, Frickenhausen, Germany). From there, 50 nl were transferred in a dark test plate (Greiner Bio-One, Frickenhausen, Germany). The assay was initiated by addition of 2 μl of a 2.5-fold concentrated His-BCL-XL solution (usually for a 1 nM end concentration in 5 μl reaction volume) in aqueous assay buffer [50 mM Tris/HCl pH 7, 100 mM sodium chloride (NaCl), 50 mM potassium fluoride (KF), 0.005% Tween-20, 2 mM DTT, 0.1% bovine gamma globulin (BGG)] to the compounds in the assay plate. This was followed by a 10-minute incubation step at 22° C. for pre-equilibration of the putative complex between His-BCL-XL and the compounds. After that, 3 μl of a 1.67-fold concentrated solution (in assay buffer) consisting of Bad BH3-derived peptide (1 nM end concentration) and TR-FRET detection reagents [1.67 nM anti-His-Eu cryptate and 1.67 nM streptavidin-XL665 (both from Cisbio Bioassays, Codolet, France)], were added.
The mixture was incubated in the dark for one hour at 22° C. and then overnight at 4° C. The formation of BCL-XL/Bad complexes was determined by measuring the resonance energy transfer of the anti-His- Eu-cryptate antibody to the streptavidin-XL665 present in the reaction. For that purpose, the fluorescence emission at 620 nm and 665 nm after excitation at 330-350 nm was measured in a TR-FRET measuring instrument, for instance a Rubystar or a Pherastar (both from BMG Lab Technologies, Offenburg, Germany) or a Viewlux (Perkin-Elmer). The ratio of the emission at 665 nm and at 622 nm was used as indicator of the amount of BCL-XL/Bad complexes present.
The resulting data (ratio) were normalized, taking 0% inhibition as the mean value of control measurements (usually 32 data points) where all reagents were included. In this case 50 nl DMSO were used instead of compounds. A 100% inhibition corresponded to the mean value of control measurements (usually 32 data points) where all reagents except BCL-XL were included. IC50 values were determined by regression analysis based on a 4 parameter equation (minimum, maximum, IC50, Hill; Y=Max+(Min−Max)/(1+(X/IC50)^HiII) using the Screener Software (Genedata).

[2] = system: MV-4-11; test: Antiproliferation assay (Assay 7), MV-4-11; type: cell-based; settings: CellTiter-Glo, several values per example
Procedure, shortened: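 CellTiter-Glo luminescence readout; 72 h compound exposure, 37° C, humidified. Day 0 reference plate read at plating for time-zero baseline.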

[3] = Homo sapiens, MV4-11, 72 h, read-out: Antiproli MV-4-11 [M] IC50
[4] = 72 hours, read-out: Antiproli MV-4-11 [M] IC50

Sequence of BCL-XL (Q07817 other isoform, or with tags, fused parts or gaps): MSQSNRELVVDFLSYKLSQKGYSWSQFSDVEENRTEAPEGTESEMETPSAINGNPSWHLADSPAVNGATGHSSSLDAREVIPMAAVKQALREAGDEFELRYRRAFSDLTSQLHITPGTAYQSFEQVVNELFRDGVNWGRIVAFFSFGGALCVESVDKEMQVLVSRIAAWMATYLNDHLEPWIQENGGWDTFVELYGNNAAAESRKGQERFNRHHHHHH

Structure (SMILES)	IC50 [1] [µM]	IC50 [2, 3] [M]	IC50 [2, 4] [M]	IC50 ([2]; 72 hours, listed as 03, read-out: Antiproli MV-4-11 [M] IC50) [M]	IC50 ([2]; 72 hours, listed as 06, read-out: Antiproli MV-4-11 [M] IC50) [M]
Cc1c2c(nn1C)CN(C)S(=O)(=O)CCCn1c(C(=O)O)c(CCCOc3cccc4c3CCC4)c3ccc(F)c-2c31 (racemic) [Example 27, (rac)-1-(3-((2,3-Dihydro-1H-inden-4-yl)oxy)propyl)-13-fluoro-8,11,12-trimethyl-5,6,9,11-tetrahydro-4H,8H-pyrazolo[3′,4′:4,5][1]thia[2,8]diazacycloundecino[6,7,8-hi]indole-2-carboxylic acid 7,7-dioxide]	> 20	8.61e-07			
Cc1cc(OCCCc2c(C(=O)O)n3c4c(c(F)ccc24)-c2c(nn(C)c2C)CN(C)S(=O)(=O)CCC3)cc(C)c1Cl (racemic) [Example 28, (rac)-1-(3-(4-Chloro-3,5-dimethylphenoxy)propyl)-13-fluoro-8,11,12-trimethyl-5,6,9,11-tetrahydro-4H,8H-pyrazolo[3′,4′:4,5][1]thia[2,8]diazacycloundecino[6,7,8-hi]indole-2-carboxylic acid 7,7-dioxide]	> 20	7.54e-06			
Cc1c2c(nn1C)CN(C)S(=O)(=O)CCCn1c(C(=O)O)c(CCCOc3cccc4c3CCCC4)c3ccc(F)c-2c31 (racemic) [Example 29, (rac)-13-Fluoro-8,11,12-trimethyl-1-(3-((5,6,7,8-tetrahydronaphthalen-1-yl)oxy)propyl)-5,6,9,11-tetrahydro-4H,8H-pyrazolo[3′,4′:4,5][1]thia[2,8]diazacycloundecino[6,7,8-hi]indole-2-carboxylic acid 7,7-dioxide]	> 20	5.86e-06			
CCc1c2c(nn1C)CN(C)S(=O)(=O)CCCn1c(C(=O)O)c(CCCOc3cccc4c3CCC4)c3ccc(F)c-2c31 (racemic) [Example 32, (rac)-1-(3-((2,3-Dihydro-1H-inden-4-yl)oxy)propyl)-12-ethyl-13-fluoro-8,11-dimethyl-5,6,9,11-tetrahydro-4H,8H-pyrazolo[3′,4′:4,5][1]thia[2,8]diazacycloundecino[6,7,8-hi]indole-2-carboxylic acid 7,7-dioxide]	> 20	2.2e-06	1.14e-06		
CCc1c2c(nn1C)CN(C)S(=O)(=O)CCCn1c(C(=O)O)c(CCCOc3cc(C)c(Cl)c(C)c3)c3ccc(F)c-2c31 (racemic) [Example 33, (rac)-1-(3-(4-Chloro-3,5-dimethylphenoxy)propyl)-12-ethyl-13-fluoro-8,11-dimethyl-5,6,9,11-tetrahydro-4H,8H-pyrazolo[3′,4′:4,5][1]thia[2,8]diazacycloundecino[6,7,8-hi]indole-2-carboxylic acid 7,7-dioxide]	> 20	4.62e-06			
CCc1c2c(nn1C)CN(C)S(=O)(=O)CCCn1c(C(=O)O)c(CCCOc3cccc4c3CCCC4)c3ccc(F)c-2c31 (racemic) [Example 34, (rac)-12-Ethyl-13-fluoro-8,11-dimethyl-1-(3-((5,6,7,8-tetrahydronaphthalen-1-yl)oxy)propyl)-5,6,9,11-tetrahydro-4H,8H-pyrazolo[3′,4′:4,5][1]thia[2,8]diazacycloundecino[6,7,8-hi]indole-2-carboxylic acid 7,7-dioxide]	> 20	4.83e-06			
CCc1c2c(nn1C)CN(C)S(=O)(=O)CCCn1c(C(=O)O)c(CCCOc3ccc(F)c4ccccc34)c3ccc(F)c-2c31 (racemic) [Example 35, (rac)-12-Ethyl-13-fluoro-1-(34(4-fluoronaphthalen-1-yl)oxy)propyl)-8,11-dimethyl-5,6,9,11-tetrahydro-4H,8H-pyrazolo[3′,4′:4,5][1]thia[2,8]diazacycloundecino[6,7,8-hi]indole-2-carboxylic acid 7,7-dioxide]	> 20	4.34e-06	8.18e-06		

Further lines, results first:

IC50 [1] [µM]	IC50 [2, 3] [M]	IC50 [2, 4] [M]	IC50 ([2]; 72 hours, listed as 03, read-out: Antiproli MV-4-11 [M] IC50) [M]	IC50 ([2]; 72 hours, listed as 06, read-out: Antiproli MV-4-11 [M] IC50) [M]	Structure (SMILES)
> 20	3.75e-06				CCc1c2c(nn1C)C(C)N(C)S(=O)(=O)CCCn1c(C(=O)O)c(CCCOc3cccc4ccccc34)c3cccc-2c31 (racemic) [Example 18, 12-Ethyl-8,9,11-trimethyl-1-(3-(naphthalen-1-yloxy)propyl)-5,6,9,11-tetrahydro-4H,8H-pyrazolo[3′,4′:4,5][1]thia[2,8]diazacycloundecino[6,7,8-hi]indole-2-carboxylic acid 7,7-dioxide (Mixture of Stereoisomers)]
> 20	1.73e-06				Cc1c2c(nn1C)CN(C)S(=O)(=O)CCCn1c(C(=O)O)c(CCCOc3cccc4cc(F)ccc34)c3ccc(F)c-2c31 (racemic) [Example 25, (rac)-13-Fluoro-1-(3-((6-fluoronaphthalen-1-yl)oxy)propyl)-8,11,12-trimethyl-5,6,9,11-tetrahydro-4H,8H-pyrazolo[3′,4′:4,5][1]thia[2,8]diazacycloundecino[6,7,8-hi]indole-2-carboxylic acid 7,7-dioxide]
> 20	5.17e-07				Cc1c2c(nn1C)CN(C)S(=O)(=O)CCCn1c(C(=O)O)c(CCCOc3cccc4ccccc34)c3ccc(F)c-2c31 (racemic) [Example 26, (rac)-13-Fluoro-8,11,12-trimethyl-1-(3-(naphthalen-1-yloxy)propyl)-5,6,9,11-tetrahydro-4H,8H-pyrazolo[3′,4′:4,5][1]thia[2,8]diazacycloundecino[6,7,8-hi]indole-2-carboxylic acid 7,7-dioxide]
> 20	4.7e-06	5.51e-06			CCc1c2c(nn1C)CN(C)S(=O)(=O)CCCn1c(C(=O)O)c(CCCOc3cccc4ccccc34)c3ccc(F)c-2c31 (racemic) [Example 31, (rac)-12-Ethyl-13-fluoro-8,11-dimethyl-1-(3-(naphthalen-1-yloxy)propyl)-5,6,9,11-tetrahydro-4H,8H-pyrazolo[3′,4′:4,5][1]thia[2,8]diazacycloundecino[6,7,8-hi]indole-2-carboxylic acid 7,7-dioxide]
> 20			1.54e-05		Cc1c2c(nn1C)CN(CCN1CCOCC1)S(=O)(=O)CCCn1c(C(=O)O)c(CCCOc3cccc4ccccc34)c3cccc-2c31 (single isomer, unassigned; enantiomer 2) [Example 3, 2,3-Dimethyl-14-[2-(morpholin-4-yl)ethyl]-7-{3-[(naphthalen-1-yl)oxy]propyl}-13,13-dioxo-10,11,12,13,14,15-hexahydro-2H-13λ^6-pyrazolo[3′,4′:4,5][1,2,8]thiadiazacycloundecino-[6,7,8-hi]indole-8-carboxylic acid-N-ethylethanamine salt (Enantiomer 2)]
18				2.02e-05	Cc1c2c(nn1C)CN(C)S(=O)(=O)CCCn1c(C(=O)O)c(CCCOc3cccc4ccccc34)c3ccc(Cl)c-2c31 (single isomer, unassigned; enantiomer 2) [Example 6, 4-Chloro-2,3,14-trimethyl-7-{3-[(naphthalen-1-yl)oxy]propyl}-13,13-dioxo-10,11,12,13,14,15-hexahydro-2H-13λ^6-pyrazolo[3′,4′:4,5][1,2,8]thiadiazacycloundecino[6,7,8-hi]indole-8-carboxylic acid-N-ethylethanamine salt (Enantiomer 2)]
